For seven compounds, GI50 and TGI results are on record in PubChem BioAssay (NCI).

Among the test systems are RXF 393 renal; MDA-MB-231 breast; NCI/ADR-RES ovarian; OVCAR-3 ovarian; SN12C renal; PC-3 prostate; SK-MEL-5 melanoma; UACC-62 melanoma; M14 melanoma; HT29 colon.
Experiment in all cases: DTP human tumour cell line panel, 48 h

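The compound was tested at five concentrations on cells cultured in 96-well plates, with a 48-hour exposure period. GI50 is the concentration that inhibits growth by half. The concentration for full growth arrest is given as TGI.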

As for `Fc1cccc(COc2ccc(Nc3ncnc4onc(-c5ccccc5)c34)cc2)c1`, the concentration for 50% growth inhibition (GI50) (usually the concentration that inhibits growth by half) in the assay with RXF 393 renal was 219 nM; in the assay with MDA-MB-231 breast it was 0.402 µM; in the assay with NCI/ADR-RES ovarian, 3.02 µM; with OVCAR-3 ovarian it was 252 nM; with SN12C renal it was 0.347 µM; in the assay on PC-3 prostate, 262 nM. Besides, the GI50 is 299 nM in the assay with SK-MEL-5 melanoma, 496 nM with UACC-62 melanoma, 179 nM in the assay on M14 melanoma and 49.5 nM in the assay with HT29 colon. Besides, the TGI (as a rule, the concentration giving total growth inhibition) in the assay on RXF 393 renal is 1.35 µM; with MDA-MB-231 breast, 14.8 µM; in the assay on NCI/ADR-RES ovarian it was 15.7 µM; in the assay on OVCAR-3 ovarian it was 2.19 µM; in the assay with SN12C renal, greater than 100 µM; in the assay on PC-3 prostate, greater than 100 µM. The TGI in the assay with SK-MEL-5 melanoma is 30.4 µM; in the assay on UACC-62 melanoma it was greater than 64.4 µM; in the assay with M14 melanoma, greater than 100 µM; in the assay with HT29 colon, greater than 34 µM.

Turning to `COc1cc(CCC[P+](c2ccccc2)(c2ccccc2)c2ccccc2)c(OC)c2c1OCO2`, the GI50 with RXF 393 renal is 2010 nM; with MDA-MB-231 breast, 2.11 µM; in the assay with NCI/ADR-RES ovarian it was 77.5 µM; with OVCAR-3 ovarian, 633 nM; in the assay on SN12C renal, 2.56 µM; in the assay with PC-3 prostate, 1550 nM. Besides, the GI50 in the assay on SK-MEL-5 melanoma was 1210 nM; in the assay with UACC-62 melanoma, 629 nM; in the assay on M14 melanoma it was 1800 nM; with HT29 colon, 812 nM. The total growth inhibition concentration (TGI) in the assay on RXF 393 renal was 8.43 µM; with MDA-MB-231 breast, 10.3 µM; in the assay on NCI/ADR-RES ovarian it was greater than 100 µM; in the assay on OVCAR-3 ovarian it was 10.7 µM; in the assay on SN12C renal it was 10.5 µM; with PC-3 prostate, greater than 100 µM. For the same compound, the TGI in the assay on SK-MEL-5 melanoma is 2.5 µM; in the assay with UACC-62 melanoma, 4.27 µM; in the assay with M14 melanoma it was 13.7 µM; in the assay on HT29 colon, 41 µM.

Take `O=S(=O)(N=C1C(Cl)=C(Cl)C(=NS(=O)(=O)c2ccccc2)C(Cl)=C1Cl)c1ccccc1`: the GI50 in the assay on RXF 393 renal is 15800 nM; with MDA-MB-231 breast it was 21.9 µM; in the assay on NCI/ADR-RES ovarian, 26.5 µM; with OVCAR-3 ovarian, 9530 nM; with SN12C renal it was 29.9 µM; in the assay on PC-3 prostate, 24300 nM. Also, the GI50 in the assay with SK-MEL-5 melanoma was 13900 nM; in the assay with UACC-62 melanoma it was 13300 nM; in the assay with M14 melanoma, 16500 nM; in the assay with HT29 colon it was 15400 nM. Besides, the TGI in the assay on RXF 393 renal is 30.9 µM; in the assay with MDA-MB-231 breast it was greater than 100 µM; in the assay with NCI/ADR-RES ovarian it was greater than 100 µM; with OVCAR-3 ovarian it was 26 µM; in the assay on SN12C renal it was greater than 100 µM; in the assay on PC-3 prostate, greater than 100 µM. For the same compound, the TGI in the assay on SK-MEL-5 melanoma came to 36.5 µM; in the assay on UACC-62 melanoma, 38.4 µM; in the assay on M14 melanoma, 34.7 µM; in the assay with HT29 colon, 49.2 µM.

Consider `COC[C@H](NC(=O)c1cnc(C)s1)C(=O)N[C@@H](COC)C(=O)N[C@@H](Cc1ccccc1)C(=O)[C@@]1(C)CO1`, for which the GI50 with RXF 393 renal is 15500 nM; in the assay on MDA-MB-231 breast it was 16.2 µM; in the assay on NCI/ADR-RES ovarian, greater than 100 µM; in the assay on OVCAR-3 ovarian, 27500 nM; in the assay on SN12C renal it was 37.6 µM; in the assay on PC-3 prostate it was 50100 nM. The GI50 in the assay with SK-MEL-5 melanoma was 19900 nM; in the assay on UACC-62 melanoma it was 15800 nM; in the assay with M14 melanoma, 24300 nM; in the assay with HT29 colon it was 21100 nM. The TGI with RXF 393 renal is 33.9 µM; with MDA-MB-231 breast, 39 µM; in the assay with NCI/ADR-RES ovarian it was greater than 100 µM; in the assay with OVCAR-3 ovarian it was greater than 86.3 µM; in the assay with SN12C renal, greater than 100 µM; in the assay on PC-3 prostate, greater than 100 µM. Also, the TGI was 47.1 µM in the assay with SK-MEL-5 melanoma, 39 µM in the assay with UACC-62 melanoma, greater than 69.8 µM in the assay with M14 melanoma and greater than 75.7 µM in the assay with HT29 colon.

As to `CCC(CC)n1cnc2c(-c3cnc(N)cn3)nc(N3CC4CCC(C3)O4)nc21`, the GI50 is 153 nM with RXF 393 renal; 0.191 µM in the assay on MDA-MB-231 breast; 0.79 µM in the assay on NCI/ADR-RES ovarian; 500 nM in the assay with OVCAR-3 ovarian; 0.294 µM with SN12C renal; 104 nM with PC-3 prostate. Also, the GI50 with SK-MEL-5 melanoma is 138 nM; with UACC-62 melanoma it was 122 nM; with M14 melanoma it was 151 nM; with HT29 colon, 742 nM. Further, the TGI in the assay with RXF 393 renal is 1.6 µM; in the assay on MDA-MB-231 breast, greater than 100 µM; in the assay with NCI/ADR-RES ovarian, greater than 33.5 µM; in the assay with OVCAR-3 ovarian it was greater than 100 µM; in the assay on SN12C renal it was greater than 100 µM; in the assay with PC-3 prostate it was greater than 100 µM. The concentration for total growth inhibition (TGI) with SK-MEL-5 melanoma is 1.21 µM; with UACC-62 melanoma, 0.929 µM; in the assay on M14 melanoma, greater than 100 µM; with HT29 colon it was greater than 100 µM.

As to `COc1ccc2cc(-c3cnc4nonc4n3)ccc2c1`, the GI50 with RXF 393 renal was 1260 nM; in the assay on MDA-MB-231 breast it was 14.1 µM; in the assay on NCI/ADR-RES ovarian, 1.32 µM; in the assay with OVCAR-3 ovarian it was 982 nM; with SN12C renal it was 5.28 µM; in the assay with PC-3 prostate, 2110 nM. For the same compound, the GI50 in the assay on SK-MEL-5 melanoma was 1240 nM; in the assay with UACC-62 melanoma, 2320 nM; in the assay with M14 melanoma, 1910 nM; in the assay with HT29 colon it was 2970 nM. For the same compound, the concentration for total growth inhibition (TGI) in the assay on RXF 393 renal is 7.31 µM; in the assay with MDA-MB-231 breast, greater than 100 µM; in the assay with NCI/ADR-RES ovarian, greater than 100 µM; in the assay on OVCAR-3 ovarian, 56.9 µM; with SN12C renal, greater than 100 µM; in the assay on PC-3 prostate, greater than 100 µM. Moreover, the TGI in the assay on SK-MEL-5 melanoma was 8.5 µM; with UACC-62 melanoma, greater than 100 µM; in the assay with M14 melanoma, 6.38 µM; in the assay with HT29 colon, greater than 100 µM.

As for `COc1ccc(NC(=O)Oc2ccc3c(C)cc(=O)oc3c2)c(OC)c1` (tested in a mixture with another compound), the TGI in the assay on RXF 393 renal, in the assay with MDA-MB-231 breast, in the assay on NCI/ADR-RES ovarian, in the assay with OVCAR-3 ovarian, in the assay with SN12C renal and in the assay with PC-3 prostate was greater than 100 µM throughout. Further, the TGI with SK-MEL-5 melanoma, in the assay with UACC-62 melanoma, with M14 melanoma and with HT29 colon was greater than 100 µM throughout.
